From patent US20260285847A1, “SYMMETRIC AMINOINDOLE-LINKED TRIAZINE FOR A DUAL EFFECT ON ALPHA-SYNUCLEIN AND TAU ISOFORM 2N4R FIBRILLIZATION” (Purdue Research Foundation, priority 2023, published 2026)

Columns and labels:
[1] = target: T1, tau isoform 2N4R (Homo sapiens, UniProt P10636); test: PICUP cross-linking assay of tau oligomer formation; format: biochemical
T1 construct: made in house; host or cells: E. coli BL21(DE3)
Protocol: Chemical and peptide source. DMSO and thioflavin-T (ThT) were purchased from Alfa Aesar (Ward Hill, MA). Procuration of recombinant α-syn was from rPeptide (WatKinsville, GA). The recombinant p-tau isoform 1N4R was prepared as published previously.^31, 36 Concerning the preparation of tau 2N4R, bacterial expression plasmid consisting of the vector pRK172 carrying a cDNA encoding the human Tau 2N4R isoform was a kind gift of Dr. David Eliezer (Weill Cornell Medicine). For protein expression, E. coli BL21(DE3) cells were transformed with the plasmid and grown in LB media supplemented with ampicillin (100 μg/mL). Protein over-expression was induced by the addition of 1 mM IPTG for 4 h at 37° C., and cells were pelleted by centrifugation at 6,000 g for 15 min at 4° C. The cells were resuspended in lysis buffer (20 mM MES, 400 mM NaCl, 0.2 mM MgCl2, 1 mM EGTA, protease inhibitor cocktail (P8340, Sigma Aldrich), 0.25 mg/mL lysozyme, and 1 μg/mL DNase I, pH 6.8) and lysed by a French press cell disruptor at 4° C., and the lysate was boiled for 20 min. Denatured proteins were pelleted by centrifugation at 30,000 g for 30 min at 4° C., and the supernatant was dialyzed overnight against cation exchange buffer (20 mM MES, 50 mM NaCl, 1 mM MgCl2, 1 mM EGTA, 2 mM DTT, 0.1 mM PMSF, pH 6.8). The dialysate was loaded onto a HiPrep SP HP column, and proteins were eluted with a linear gradient ranging from 50 mM to 1 M NaCl. Fractions containing tau isoform 2N4R were pooled, and the resulting protein solution was dialyzed against PBS (pH 7.4) and stored at −80° C.
PICUP is a technique in which oligomer formation is induced by cross-linking. To induce oligomerization by cross-linking, α-syn (from Rpeptide, LLC) and tau isoform 2N4R were diluted in 10 mM phosphate buffer (pH 7.4) to reach a final concentration of 10 μM. Different compounds were added to the protein solution at a final concentration of 50 μM, resulting in a molar ratio of 1:5. […]

[2] = target: T2, alpha-synuclein (α-syn) (Homo sapiens, UniProt P37840); test: Thioflavin T (ThT) fluorescence assay of α-syn fibril formation; format: biochemical; conditions: compound 100 μM
T2 construct: purchased rPeptide
Protocol: Thioflavin fluorescence assays. Thioflavin fluorescence assays were used to monitor fibril formation of recombinant α-syn, tau isoform 2N4R, treated with control DMSO and different compounds. Kinetics of α-syn fibrillization were performed using thioflavin T (ThT) as published previously.^32′ ^37 The fluorescence emission experiments were performed with the excitation and emission wavelengths set at 440 and 485 nm, respectively, with a Synergy HT multi-mode microplate reader (BioTek, Winooski, VT). Samples were measured in three replicates and the experiments were repeated three times using at least two different stock solutions. For each time point, arbitrary units of fluorescence were calculated from the mean values normalized against the maximum value in each completed assay. All results contained in FIG. 1 were presented as mean±SEM.
FIG. 1. Chemical structure, physicochemical descriptors, and the effect of compounds on alpha-synuclein (α-syn) aggregation measured as fluorescence intensity using ThT assay. TPSA, Log P, and Log D were obtained with SwissADME. BBB and pKa were obtained from the Blood-Brain Barrier Prediction Server (https://www.cbligand.org/BBB/) and Chemaxon, respectively. CNS MPO scores were assessed as published previously, The ThT (%) represent the maximum fluorescence intensity obtained at the plateau phase of the kinetics of fibrillization using 6.25 μM of α-syn. Compounds were tested at 100 μM (molar ratio 1:16). BBB, blood-brain barrier; C log D, calculated distribution coefficient at 7.4; C log P, calculated partition coefficient; CNS MPO, Central Nervous System Multi Parameter Optimization; HBA, Hydrogen Bond Acceptor; HBD, Hydrogen Bond Donor; LR5, Lipinski's rule of five; pKa, negative log of acid dissociation constant; ThT, Thioflavin T; TPSA, Topological polar surface area.

[3] = α-syn inclusion formation in dox-inducible neuroblastoma cells; format: cell-based; conditions: human, m17d neuroblastoma cells; read-out: concentration from which a small level of toxicity is seen (cell confluence)
Protocol: (§1) The dox-inducible neuroblastoma cell line M17D-TR/αS3K::YFP was used to evaluate the effect of compounds in preventing the formation of inclusion following induction with Dox. Dox-inducible neuroblastoma cells M17D-TR/αS-3K::YFP have been used previously. 96-well plates were used with cellular density of 30,000 cells per well. Compounds were added after 24 h and aS-3K::YFP transgene expression was induced […]. Induction was done by adding 1 μg per mL (final concentration) dox to culture media. Cells were incubated in the Incucyte Zoom 2000 platform (Essen Biosciences) and images (green, bright field) were taken continuously. Endpoint analysis of inclusion formation or growth was performed 48 h after induction (96 h after plating). The Incucyte processing definition ‘Inclusions’ was created as follows: Parameters, Fixed Threshold, Threshold (GCU) 50; Edge Split On, Edge Sensitivity 100; Cleanup, Hole Fill (μm^2): 10, Adjust Size (pixels): 0; Filters, Area (μm^2): max 50, Mean Intensity: min 60, Integrated Intensity: min 2000. […] As described previously for the evaluation of protein expression by SDS-PAGE and Western Blotting in the LiCor system, αS-specific monoclonal antibody 4B12 (Thermofisher, Waltham, MA; 1:1000) and a polyclonal antibody to GAPDH (Sigma-Aldrich, St. Louis, MO, G9545; 1:5000) were used.

[4] = tested on: M17D-TR/αS3K::YFP neuroblastoma cells; test: as above; format: cell-based
Protocol: as §1

T1 sequence (P10636 1-441 isoform P10636-8): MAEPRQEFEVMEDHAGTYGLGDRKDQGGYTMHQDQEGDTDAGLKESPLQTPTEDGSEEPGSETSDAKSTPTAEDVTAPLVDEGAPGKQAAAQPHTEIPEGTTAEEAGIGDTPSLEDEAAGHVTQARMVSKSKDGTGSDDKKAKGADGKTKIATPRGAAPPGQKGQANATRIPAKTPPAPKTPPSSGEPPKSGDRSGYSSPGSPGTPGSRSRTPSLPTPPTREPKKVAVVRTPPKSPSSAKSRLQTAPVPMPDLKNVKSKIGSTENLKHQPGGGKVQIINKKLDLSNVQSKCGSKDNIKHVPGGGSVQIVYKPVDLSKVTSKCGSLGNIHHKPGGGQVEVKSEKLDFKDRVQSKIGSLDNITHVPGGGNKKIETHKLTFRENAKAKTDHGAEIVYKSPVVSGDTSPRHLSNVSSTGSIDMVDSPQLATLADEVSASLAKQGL

With c1cc(Nc2ncnc(Nc3cccc4[nH]ccc34)n2)c2cc[nH]c2c1 [Compound 10, N2,N4-bis(1H-indol-4-yl)-1,3,5-triazine-2,4-diamine] the “tau oligomer formation (PICUP, in words)” value ([1]; compound 50 μM, high molecular weight oligomers around 190 kDa) was “inhibited both α-syn and tau oligomer formation”, the “tau isoform 2N4R oligomerization at different concentrations (PICUP)” value ([1]; compound 3.125 to 50 μM) was “effective in reducing oligomerization of α-syn and tau isoform 2N4R in a dose-dependent manner” and the “lag time of α-syn fibril elongation” value ([2]; α-syn 6 μM) was “delayed slightly the lag time”. For the same compound, the activity at 100 µM ([2]; α-syn 6.25 μM (molar ratio 1:16), compared with DMSO control, mean±SEM, read-out: ThT fluorescence intensity (FI), maximum at the plateau phase of α-syn fibrillization) was 13.5 ± 1.7%, the MCC [3] was at least 10 µM and the minimal effective concentration ([4]; Neuroblastoma cell, read-out: concentration from which α-syn inclusion body formation is reduced) was at least 2.5 µM. For the same compound, the “α-syn expression levels (Western blot)” value ([4]; compound 10 μM) was “reduced”, the “toxicity (cell confluence, in words)” value ([4]; compound 40 μM) was “more intense toxicity” and the “α-syn inclusion formation (punctate YFP signal, in words)” value ([4]; compound 7: 2.5 to 20 μM, compound 10: 2.5 to 40 μM, readout 96 h after plating, vs 0.1% DMSO) was “reduced α-syn inclusion formation”.
